Laboratory results taken from US10118943B2, “Compounds and methods for inhibiting cell death” (Ramot at Tel-Aviv University Ltd., priority 2012, dated 2018).
Entries after “also recorded” stand apart in the source; their conditions may differ.

Columns and labels:
PC12 cells = details: ZnCl2 400 μM, increasing concentrations of peptide
primary cortical neurons = test: PSD-95 density in primary cortical neuron culture; type: cell-based, rat; details: neurons treated for 2 hrs
Protocol: Methods: 1. Primary cultures of neurons were prepared as follows. Newborn rats were sacrificed on postnatal day 1. Cerebral cortex tissue was then dissected and dissociated individually from each pup with the Papain Dissociation System (PDS; Worthington Biochemical Corporation) according to the manufacturer's instructions. 2. Cells were fixed with ice cold methanol, blocked with 2% bovine serum albumin (BSA) and 5% normal goat serum in Tris buffered saline containing tween 20 (TBS-T; 20 mM Tris pH 7.5, 136.8 mM NaCl, and 0.05% v/v Tween 20), and incubated with primary antibody followed by the appropriate secondary antibody. 3. Primary antibodies that were used include: monoclonal anti PSD-95 (ab-2723, Abcam), monoclonal anti Tyr-α-tubulin antibody (YL1/2) (VMA1864, Abcys, Paris, France), polyclonal anti Glu-α-tubulin antibody (L4) (AbC0101, Abcys, Paris, France), DyLight 488-labeled secondary goat anti-mouse IgG, DyLight 633-labeled secondary goat anti-rabbit IgG (KPL, Gaithersburg, Md., USA), Cy3-conjugated secondary goat anti-Rat IgG, (Jackson ImmunoResearch). 4. Images were collected with a Leica SP5 confocal laser scanning microscope (Mannheim, Germany) with 63× oil immersion optics, laser lines at 488, 561, 633 nm. Identical confocal laser scanning microscopy (CLSM) parameters (e.g., scanning line, laser light, gain, and offset etc.) were used for control and NAP treated cells.
For instance, a PSD-95 expression assay using primary cortical neuron cultures established from suitable animals may be performed to confirm a compound's activity in promoting cell plasticity. More specifically, primary cultures of neurons are prepared by first taking cerebral cortex tissue from newborn rats on postnatal day 1. The cerebral cortex tissue is then dissected and dissociated individually from each animal. Cells are fixed with ice cold methanol, blocked (e.g., with bovine serum albumin (BSA) and normal goat serum), and incubated with primary antibody (e.g., monoclonal antibody against PSD-95), optionally followed by the appropriate secondary antibody for imaging purposes. Images of primary neuronal cultures are taken and compared between cultures with or without being exposed to a test compound. An increased PSD-95 expression is indicative of the test compound being capable of promoting or protecting cell plasticity, especially neuronal plasticity.
Cerebral cortex tissue from newborn rats was dissected and dissociated individually from each pup with the Papain Dissociation System (PDS), (Worthington Biochemical Corporation) according to the manufacturer's instructions. Cortical neurons were maintained in Neurobasal medium (NB), (Gibco) supplemented with NeuroCult B27-SM1 ([…]), 1% Glutamax (Gibco), and grown on poly-D-lysine-coated cell culture glass cover slips.
Images were collected with a Leica SP5 confocal laser scanning microscope (Mannheim, Germany) with 63× oil immersion optics, laser lines at 488, 561, 633 nm or with LSM 510 META (Zeiss, Jena, Germany) confocal laser scanning microscope with 63× oil immersion optics, laser lines at 488, 568, 633 nm. When comparing fluorescence intensities, identical CLSM parameters (e.g., scanning line, laser light, gain, and offset etc.) were used. All of the fluorescent signals acquired were above the autofluorescent background as measured from a control slide stained with secondary antibody without a primary antibody. To compare the relative levels of protein expression, the average integrated density (AID) image analysis procedure was used for cell immunostains. In brief, integrated density is defined by the sum of the values of the pixels in the selected region of interest (ROI). This is equivalent to the product of Area and Mean Gray Value. AID for the positive stained area was determined by measuring the fluorescent intensity of the ROI, which is above the positive cut-off intensity. […]

NAPVSKIPQ (synthetic novel peptide core sequence SKIP derived from hybrid microtubule end-binding protein 3 (EB3)- binding microtubule plus-end tracking proteins (+TIPs) and activity-dependent neurotrophic factor (ADNF) active core site (NAP))
protection against zinc-induced cell death (PC12 cells): protected by the addition of SKIP, over a wide range of concentrations
derivative peptides effect on PSD-95 density vs vehicle controls (FIG. 10c) (primary cortical neurons): paralleled to NAPVSIPQ activity; also recorded: significantly increased
